Measurements: ChEMBL document CHEMBL5724696, “Autophagy assay results for EUbOPEN Chemogenomics Library” (2024)

Tests used:
Assay type in all cases: functional, Homo sapiens
U2OS [1] = assay: (§1) Here: values are normalized to the negative (DMSO; defined as 0% autophagy induction) and positive (250nM Torin1; mTOR inhibitor; defined as maximal inducer of autophagy = 100%) control compounds and represented as % of autophagy induction. […] The impact of autophagy induction on cells is complex and depends on the affected target. As such, the magnitude of a phenotype may not be equally mirrored in the %-value of autophagy induction and vice versa. The dynamics of the induction may indicate the mode of activation: e.g. activation via phosphorylation or a signaling cascade may occur fast, while activation via transcription factors may take considerably longer. […] Of note, treatment concentrations may be sub-optimal for specific compounds, leading to false negative annotations.; conditions: Culturing Media DMEM, 1 % Penicillin/Streptomycin, 10% Fetal bovin serum Add-On: No, Screening Media Control DMEM, Screening Media Samples DMEM
TERT-RPE1 = assay: as §1; conditions: Culturing Media DMEM/F12 (1:1), 1 % Penicillin/Streptomycin, 10% Fetal bovin serum Add-On: No, Screening Media Control DMEM/F12 (1:1), Screening Media Samples DMEM/F12 (1:1)
U2OS [2] = assay: as §1; conditions: Culturing Media DMEM, 1 % Penicillin/Streptomycin, 10% Fetal bovin serum Add-On: No, Screening Media Control DMEM, Screening Media Samples DMEM; remark: listed apart in the source
[3] = Compound Concentration 0.5 uM, Timepoint 12 hours
[4] = Compound Concentration 0.5 uM, Timepoint 24 hours
[5] = Compound Concentration 0.5 uM, Timepoint 36 hours
[6] = Compound Concentration 0.5 uM, Timepoint 60 hours
[7] = Compound Concentration 2 uM, Timepoint 12 hours
[8] = Compound Concentration 2 uM, Timepoint 24 hours
[9] = Compound Concentration 2 uM, Timepoint 36 hours
[10] = Compound Concentration 2 uM, Timepoint 60 hours
[11] = Compound Concentration 10 uM, Timepoint 12 hours
[12] = Compound Concentration 10 uM, Timepoint 24 hours
[13] = Compound Concentration 10 uM, Timepoint 36 hours
[14] = Compound Concentration 10 uM, Timepoint 60 hours

| SMILES | autophagy induction (U2OS [1]; [3]) [%] | autophagy induction (U2OS [1]; [4]) [%] | autophagy induction (U2OS [1]; [5]) [%] | autophagy induction (U2OS [1]; [6]) [%] | autophagy induction (U2OS [1]; [7]) [%] | autophagy induction (U2OS [1]; [8]) [%] | autophagy induction (U2OS [1]; [9]) [%] | autophagy induction (U2OS [1]; [10]) [%] | autophagy induction (U2OS [1]; [11]) [%] | autophagy induction (U2OS [1]; [12]) [%] | autophagy induction (U2OS [1]; [13]) [%] | autophagy induction (U2OS [1]; [14]) [%] | autophagy induction (TERT-RPE1; [3]) [%] | autophagy induction (TERT-RPE1; [4]) [%] | autophagy induction (TERT-RPE1; [5]) [%] | autophagy induction (TERT-RPE1; [6]) [%] | autophagy induction (TERT-RPE1; [7]) [%] | autophagy induction (TERT-RPE1; [8]) [%] | autophagy induction (TERT-RPE1; [9]) [%] | autophagy induction (TERT-RPE1; [10]) [%] | other results |
| --- | --- | --- | --- | --- | --- | --- | --- | --- | --- | --- | --- | --- | --- | --- | --- | --- | --- | --- | --- | --- | --- |
| O=C1N/C(=N/c2ccccc2F)S/C1=C\c1ccc(C(=O)O)cc1 | 1.731 | 0.03156 | -1.478 | 0.04429 | 4.489 | 0.7124 | -0.5769 | 0.3402 | -30.0859 | -13.2121 | -8.741 | -4.602 | -10.0262 | -9.4115 | -12.0012 | -17.4269 | -2.621 | -7.325 | -9.455 | -13.9846 | autophagy induction (TERT-RPE1; [11]): -9.926%; autophagy induction (TERT-RPE1; [12]): -10.0998%; autophagy induction (TERT-RPE1; [13]): -12.1834%; autophagy induction (TERT-RPE1; [14]): -11.0664%; autophagy induction (U2OS [2]; [3]): -6.588%; autophagy induction (U2OS [2]; [4]): -6.026%; autophagy induction (U2OS [2]; [5]): -1.651%; autophagy induction (U2OS [2]; [6]): -8.214%; autophagy induction (U2OS [2]; [7]): 1.845%; autophagy induction (U2OS [2]; [8]): 3.048%; autophagy induction (U2OS [2]; [9]): 0.4254%; autophagy induction (U2OS [2]; [10]): -3.587%; autophagy induction (U2OS [2]; [11]): 7.038%; autophagy induction (U2OS [2]; [12]): 3.001%; autophagy induction (U2OS [2]; [13]): 3.146%; autophagy induction (U2OS [2]; [14]): -8.731% |
| CS(=O)(=O)NC[C@H]1CC[C@H](Nc2nc3c(s2)CCSc2ccccc2-3)CC1 | -4.815 | -2.571 | -1.135 | -2.5406 | -10.1359 | -5.225 | -2.722 | -2.833 | -13.0428 | -4.43 | -4.437 | -6.0772 | -4.034 | -8.281 | -9.381 | -11.7228 | -3.533 | -4.081 | -4.248 | -9.574 | autophagy induction (TERT-RPE1; [11]): -3.228%; autophagy induction (TERT-RPE1; [12]): -1.909%; autophagy induction (TERT-RPE1; [13]): 1.0286%; autophagy induction (TERT-RPE1; [14]): 5.565%; autophagy induction (U2OS [2]; [3]): 7.101%; autophagy induction (U2OS [2]; [4]): 7.652%; autophagy induction (U2OS [2]; [5]): 1.469%; autophagy induction (U2OS [2]; [6]): -11.3587%; autophagy induction (U2OS [2]; [7]): 8.098%; autophagy induction (U2OS [2]; [8]): 3.777%; autophagy induction (U2OS [2]; [9]): 0.6599%; autophagy induction (U2OS [2]; [10]): -6.18%; autophagy induction (U2OS [2]; [11]): 6.84%; autophagy induction (U2OS [2]; [12]): 4.331%; autophagy induction (U2OS [2]; [13]): 3.398%; autophagy induction (U2OS [2]; [14]): 7.256% |
| Cc1cn2cc(CC(=O)N3CCC4(CC3)CN(Cc3ccc(-n5nccn5)cc3Cl)C4)nc2s1 | 1.123 | -3.762 | -1.928 | -1.19 | -4.678 | -1.951 | -1.585 | -1.336 | -3.342 | -3.411 | -3.208 | -4.891 | -2.947 | -6.082 | -10.2542 | -15.5621 | -4.023 | -6.112 | -7.965 | -11.2776 | autophagy induction (TERT-RPE1; [11]): 6.864%; autophagy induction (TERT-RPE1; [12]): 5.224%; autophagy induction (TERT-RPE1; [13]): 5.8937%; autophagy induction (TERT-RPE1; [14]): 9.679%; autophagy induction (U2OS [2]; [3]): -19.4257%; autophagy induction (U2OS [2]; [4]): -11.2688%; autophagy induction (U2OS [2]; [5]): -14.8033%; autophagy induction (U2OS [2]; [6]): -9.0407%; autophagy induction (U2OS [2]; [7]): 2.217%; autophagy induction (U2OS [2]; [8]): 1.46%; autophagy induction (U2OS [2]; [9]): 0.9512%; autophagy induction (U2OS [2]; [10]): 5.325%; autophagy induction (U2OS [2]; [11]): -2.971%; autophagy induction (U2OS [2]; [12]): 3.988%; autophagy induction (U2OS [2]; [13]): 2.68%; autophagy induction (U2OS [2]; [14]): 3.422% |
| C[C@H](CO)Nc1nc(SCc2cccc(Cl)c2F)nc2[nH]c(=O)sc12 | 5.635 | -1.036 | -0.662 | 0.3997 | -11.0736 | -4.995 | -2.19 | -0.5002 | 9.288 | 6.328 | 3.708 | 1.649 | -10.6276 | -12.9518 | -15.2456 | -20.3989 | -5.728 | -8.929 | -11.3534 | -17.566 | autophagy induction (TERT-RPE1; [11]): -4.7585%; autophagy induction (TERT-RPE1; [12]): -7.211%; autophagy induction (TERT-RPE1; [13]): -11.193%; autophagy induction (TERT-RPE1; [14]): -13.8782%; autophagy induction (U2OS [2]; [3]): -2.252%; autophagy induction (U2OS [2]; [4]): -5.227%; autophagy induction (U2OS [2]; [5]): -4.361%; autophagy induction (U2OS [2]; [6]): 0.5148%; autophagy induction (U2OS [2]; [7]): -3.135%; autophagy induction (U2OS [2]; [8]): -6.665%; autophagy induction (U2OS [2]; [9]): -3.053%; autophagy induction (U2OS [2]; [10]): -3.815%; autophagy induction (U2OS [2]; [11]): -3.826%; autophagy induction (U2OS [2]; [12]): 1.119%; autophagy induction (U2OS [2]; [13]): 5.199%; autophagy induction (U2OS [2]; [14]): 9.3581% |
